Reference: ChEMBL document CHEMBL5136988, “Chlororesistoflavins A and B, Chlorinated Benzopyrene Antibiotics Produced by the Marine-Derived Actinomycete Streptomyces sp. Strain EG32” (2022)
Converted amounts (≈) assume the structure as drawn.

How the values were obtained:
Escherichia coli = test: Antibacterial activity against Escherichia coli LptD4213 assessed as growth inhibition incubated for 20 hrs by CLSI based broth microdilution method; assay type: functional
Staphylococcus aureus = test: Antibacterial activity against methicillin-resistant Staphylococcus aureus TCH1516 assessed as growth inhibition incubated for 20 hrs by CLSI based broth microdilution method; assay type: functional

Compound | MIC (Escherichia coli) [µg/mL] | MIC (Staphylococcus aureus) [µg/mL]
Cc1cc(O)c2c3c4c(cc(O)c13)C(C)(C)C(=O)c1c(O)cc(O)c(c1-4)C2=O [HELIOMYCIN] | 32 (≈ 85 µM) | 0.125 (≈ 0.332 µM)
Cc1cc(O)c2c3c1C(=O)C=C1C(C)(C)C(=O)c4c(O)c(Cl)c(O)c(c4[C@@]13O)C2=O | 128 (≈ 300 µM) | 2 (≈ 4.69 µM)
Cc1cc(O)c2c3c1C(=O)C(Cl)=C1C(C)(C)C(=O)c4c(O)cc(O)c(c4[C@@]13O)C2=O | 32 (≈ 75 µM) | 0.25 (≈ 0.586 µM)
Cc1cc(O)c2c3c1C(=O)C=C1C(C)(C)C(=O)c4c(O)cc(O)c(c4[C@@]13O)C2=O | 64 (≈ 163 µM) | 0.25 (≈ 0.637 µM)
